# Test results published in ChEMBL document CHEMBL1921755, “The synthesis of xanthones, xanthenediones, and spirobenzofurans: their antibacterial and antifungal activity” (2011).
# Experiments:
# Type in all cases: functional
# [1] = test system: Candida albicans; assay: Antifungal activity against Candida albicans ATCC 10231
# [2] = test system: Cryptococcus neoformans; assay: Antifungal activity against Cryptococcus neoformans ATCC 90112
# [3] = test system: Staphylococcus aureus; assay: Antibacterial activity against Staphylococcus aureus ATCC 2587
# [4] = test system: Escherichia coli; assay: Antibacterial activity against Escherichia coli ATCC 8739
# [5] = test system: Bacillus cereus; assay: Antibacterial activity against Bacillus cereus ATCC 11778
# [6] = test system: Moraxella catarrhalis; assay: Antibacterial activity against Moraxella catarrhalis […]
# [7] = test system: Candida albicans; assay: Antifungal activity against Candida albicans
# [8] = test system: Nakaseomyces glabratus; assay: Antifungal activity against Candida glabrata
# [9] = test system: Bacillus subtilis; assay: Antibacterial activity against Bacillus subtilis
MIC [1],MIC [2],MIC [3],MIC [4],MIC [5],MIC [6],MIC [7],MIC [8],MIC [9],SMILES
78.1 µg/mL,19.5 µg/mL,78.1 µg/mL,156 µg/mL,19.5 µg/mL,78.1 µg/mL,,,,COC12Oc3ccccc3C(=O)C1=CC(=O)c1ccccc12 (centres undefined)
3.6 µg/mL,3.6 µg/mL,93.7 µg/mL,125 µg/mL,31.3 µg/mL,125 µg/mL,,,,COC12C=CC(=O)C=C1C(=O)c1ccccc1O2 (centres undefined)
469 µg/mL,29.2 µg/mL,19.5 µg/mL,469 µg/mL,78.1 µg/mL,312 µg/mL,,,,COC12Oc3ccc(Cl)cc3C(=O)C1=CC(=O)c1ccccc12 (centres undefined)
156 µg/mL,39 µg/mL,156 µg/mL,312 µg/mL,156 µg/mL,312 µg/mL,,,,COC1=CC2(Oc3ccc(Cl)cc3C2=O)C(OC)=CC1=O (centres undefined)
31.3 µg/mL,15.6 µg/mL,62.5 µg/mL,188 µg/mL,31.3 µg/mL,125 µg/mL,,,,COC1=CC2(OC)Oc3ccc(Br)cc3C(=O)C2=CC1=O (centres undefined)
156 µg/mL,78.1 µg/mL,117 µg/mL,312 µg/mL,312 µg/mL,625 µg/mL,,,,COc1cc2oc3ccc(Cl)cc3c(=O)c2cc1OC
31.3 µg/mL,15.6 µg/mL,15.6 µg/mL,62.5 µg/mL,15.6 µg/mL,125 µg/mL,,,,COC1=CC2(Oc3ccc(-c4ccccc4C=O)cc3C2=O)C(OC)=CC1=O (centres undefined)
,,,,,,,,4.6 µM,CC1(C)C=Cc2c(cc3oc4c(O)cccc4c(=O)c3c2O)O1
156 µg/mL,7.8 µg/mL,156 µg/mL,312 µg/mL,156 µg/mL,156 µg/mL,,,,COC12C=CC(=O)C=C1C(=O)c1cc(Cl)ccc1O2 (centres undefined)
31.3 µg/mL,15.6 µg/mL,62.5 µg/mL,62.5 µg/mL,31.3 µg/mL,125 µg/mL,,,,COC1=CC2(Oc3ccc(Br)cc3C2=O)C(OC)=CC1=O (centres undefined)

# More lines, now with the values behind:
SMILES,MIC [1],MIC [2],MIC [3],MIC [4],MIC [5],MIC [6],MIC [7],MIC [8],MIC [9]
O=C(O)c1cn(C2CC2)c2cc(N3CCNCC3)c(F)cc2c1=O [CIPROFLOXACIN],,,1.25 µg/mL,,0.08 µg/mL,1.25 µg/mL,,,
COC1=CC2(OC)Oc3ccc(Cl)cc3C(=O)C2=CC1=O (centres undefined),20.8 µg/mL,15.6 µg/mL,39 µg/mL,156 µg/mL,39 µg/mL,156 µg/mL,,,
COC1=CC(=O)C[C@@H](C)[C@]12Oc1c(Cl)c(OC)cc(OC)c1C2=O [GRISEOFULVIN],,,,,,,20 µg/mL,,
COc1ccc2oc3ccc(Cl)cc3c(=O)c2c1,234 µg/mL,156 µg/mL,234 µg/mL,625 µg/mL,625 µg/mL,1250 µg/mL,,,
CC(C)=CCc1cccc2c(=O)c3c(O)cc4c(c3oc12)C=CC(C)(C)O4 [LAURENTIXANTHONE A],,,,,,,,2.44 µM,
COc1cc2oc3ccc(Br)cc3c(=O)c2cc1O,31.3 µg/mL,15.6 µg/mL,62.5 µg/mL,125 µg/mL,31.3 µg/mL,125 µg/mL,,,
COC12C=CC(=O)C=C1C(=O)c1cc(Br)ccc1O2 (centres undefined),7.8 µg/mL,15.6 µg/mL,62.5 µg/mL,62.5 µg/mL,31.3 µg/mL,125 µg/mL,,,
O=c1c2cc(O)ccc2oc2ccc(Br)cc12,31.3 µg/mL,11.7 µg/mL,250 µg/mL,125 µg/mL,31.3 µg/mL,> 250 µg/mL,,,
COc1ccc2oc3ccccc3c(=O)c2c1,156 µg/mL,78.1 µg/mL,156 µg/mL,312 µg/mL,312 µg/mL,625 µg/mL,,,
COC1=CC2(Oc3ccc(-c4ccccc4)cc3C2=O)C(OC)=CC1=O (centres undefined),31.3 µg/mL,23.4 µg/mL,62.5 µg/mL,125 µg/mL,46.9 µg/mL,> 250 µg/mL,,,
COc1cc2oc3ccccc3c(=O)c2cc1OC,31.3 µg/mL,31.3 µg/mL,62.5 µg/mL,125 µg/mL,46.9 µg/mL,125 µg/mL,,,
COc1c(O)ccc2oc3ccccc3c(=O)c12,31.3 µg/mL,15.6 µg/mL,125 µg/mL,125 µg/mL,31.3 µg/mL,125 µg/mL,,,
